The source of these data is US3993650A, “Pyrrolo [3,4-d] pyrimidines” (Gruppo Lepetit S.p.A., priority 1975, dated 1976).

Each structure is given as a SMILES string.

The test system of the test is carragenin induced edema. Briefly: carragenin induced edema test in rats (antiinflammatory activity). The test is classed as in vivo. The following applies: per os; for decrease of the induced edema: 100 mg/kg; for decrease of the induced edema over the controls: dose levels ranging from about 20 to about 50 mg/kg. As for the experimental part:
The compounds of the invention display excellent pharmacological properties; more particularly they are active essentially as antiinflammatories and as prostaglandin synthetase inhibitors. The antiinflammatory activity was investigated through the "carragenin induced edema" test in rats, which was performed following substantially the operative schema proposed by C.A. Winter et al. in Proc. Soc. Expl. Biol. Med., 111, 544, 1962.
It must be noted that a percent decrease of the edema of 30 is absolutely significative from the pharmacological standpoint. Moreover when administered per os at 100 mg/kg the compounds of examples 3 and 7 caused a decrease of the induced edema of about 55%. These very favorable antiinflammatory properties are coupled with a low toxicity, being the LD50 of the compounds of the invention always higher than 500 mg/kg p.o. in mice. Toxicities were determined substantially according to the method described by Lichtfield and Wilcoxon in Journ. Pharm. Expt. Ther., 96, 99 1949.

Consider `CCn1c(-c2ccccc2)c2c(C)nc(-c3ccccc3)c-2[nH]c1=O.Cl` [Example 3, 3-Ethyl-5-methyl-4,7-diphenyl-1H-pyrrolo[3,4-d]pyrimidine-2(3H)-one hydrochloride], for which the “decrease of the induced edema” value was “about 55%” and the “decrease of the induced edema over the controls” value (“decrease … over the controls” below) is “at least 30%”.
Turning to `CCn1c(-c2ccccc2)c2[nH]c(=O)nc(-c3ccccc3)c2c1C` [Example 6, 6-Ethyl-5-methyl-4,7-diphenyl-6H-pyrrolo[3,4-d]pyrimidine-2(1H)-one], the “decrease … over the controls” value is “at least 30%”.
Regarding `CCn1c(C)c2c(-c3ccccc3)nc(=O)n(CC)c2c1-c1ccccc1` [Example 7, 1,6-Diethyl-5-methyl-4,7-diphenyl-6H-pyrrolo[3,4-d]pyrimidine-2(1H)-one], the “decrease of the induced edema” value is on record as “about 55%” and the “decrease … over the controls” value is given as “at least 30%”.
